B1: GDNF: the protein glial cell line-derived neurotrophic factor, infused in Parkinson patients (Love et al.) (protein, UniProt P39905 78-211, looked up)
Glial cell line-derived …: SPDKQMAVLPRRERNRQAAAANPENSRGKGRRGQRGKNRGCVLTAIHLNVTDLGLGYETKEELIFRYCSGSCDAAETTYDKILKNLSRNRRLVSDKVGQACCRPIAFDDDLSFLDDNLVYHILRKHSAKRCGCI

Tested on: dopamine concentration in the striatum
Assay: Chronic MPP+ infusion model of Parkinson's disease, dopamine concentration in the striatum
Type: in vivo, rat
Parameters: key to Anti-Parkinson test in comparison to 9-methyl-β-carboline: +: slightly better than 9-methyl-β-carboline; ±: the same as 9-methyl-β-carboline; −: slightly worse than 9-methyl-β-carboline
Details: tested as described in example 8
Excerpt: In the diagram the dopamine (DA) levels of the left and right striatum of the single rats are indicated.
To investigate Parkinson's disease acute in vivo models are used for years although chronic models would be a better model for the disease. Another disadvantage of the acute models is that ca. 40% of the animals die from the application of the neurotoxin. Therefore, we have chosen a chronic model in which comparably very low doses of neurotoxin 1-methyl-4-phenylpyridinium (MPP^+) were infused for 28 days into the left lateral ventricle of the rat brain. The substance was continuously applied through osmotic minipumps. Thereby, casualties were completely avoided. After four weeks, either solvent or equimolar amounts of the sample substance, namely neuroprotective betacarboline, resp. 9-alkyl-betacarboline was infused for two weeks via the same catheter. In a preliminary study for dose-finding the MPP^+ dose which leads to a reduction by 40% of the dopamine concentration in the striatum was determined. The dopamine concentration in the striatum is a characteristic marker for Parkinson's disease in which a degeneration of dopaminergic neurons occurs.
The compounds A to L were tested as described in example 8. The test results of the compounds A to L are indicated in the following table in comparison to 9-methyl-β-carboline.

Molecule | Anti-Parkinson test in comparison to 9-methyl-β-carboline
CCCn1c2ccccc2c2ccncc21 [Compound A] | +
CCCCCCn1c2ccccc2c2ccncc21 [Compound B] | ±
CCCCCCCCCCCCCCn1c2ccccc2c2ccncc21 [Compound C] | ±
C=CCn1c2ccccc2c2ccncc21 [Compound D] | +
CC(C)Cn1c2ccccc2c2ccncc21 [Compound E] | +
CCn1c2ccccc2c2ccncc21 [Compound F] | ±
COCCn1c2ccccc2c2ccncc21 [Compound G] | ±
C#CCn1c2ccccc2c2ccncc21 [Compound H] | +
c1ccc(Cn2c3ccccc3c3ccncc32)cc1 [Compound I] | −
COC(=O)CCn1c2ccccc2c2ccncc21 [Compound J] | ±
CC(C)C(C)Cn1c2ccccc2c2ccncc21 (centres unmarked) [Compound K] | ±
CN(C)CCn1c2ccccc2c2ccncc21 [Compound L] | +

Tested on: dopaminergic neurons in the anterior putamen
Assay: not given
Details: patients suffering from Parkinson's disease, infusion; cited from earlier work

Molecule | cellular extensions of dopaminergic neurons in the anterior putamen | clinical symptoms
B1 | growth of cellular extensions | improvement in clinical symptoms

— US8334299B2, “β-carboline for the treatment of neurodegenerative diseases” (Ellneuroxx, Ltd., priority 2007, dated 2012)
